Values of other authors, collected in US20210046025A1, “Injection for Protecting Ischemic Myocardium and Preparation Method thereof” (priority 2018, published 2021).

Experiments:
[1] = first-pass metabolism elimination
[2] = system: ischemia/reperfusion myocardial infarction; settings: large animal models, clinically relevant reperfusion (Min Xie et al., Circulation 2014)

Oral bioavailability [1]: very low | Solubility in oil and water: insoluble in both oil and water | Water solubility: poor
Structure (SMILES): O=C(CCCCCCC(=O)Nc1ccccc1)NO [N-suberoylanilide hydroxamic acid]
Effect on myocardial infarction area [2]: reduce myocardial infarction area
